Source: ChEMBL document CHEMBL2010728, “Bicyclic benzofuran and indole-based salicylic acids as protein tyrosine phosphatase inhibitors” (Bioorg Med Chem, 2012)

What was measured:
[1] = target: Tyrosine-protein phosphatase YopH (Yersinia pseudotuberculosis serotype I (strain IP32953), UniProt P08538); test: Inhibition of Yersinia pseudotuberculosis YopH
[2] = target: T1, Tyrosine-protein phosphatase non-receptor type 1 (Homo sapiens, UniProt P18031); test: Inhibition of PTP1B expressed in Escherichia coli BL21 (DE3) cells using p-nitrophenyl phosphate as substrate after 2 to 3 mins by spectrophotometric analysis
T1 sequence (P18031 whole entry): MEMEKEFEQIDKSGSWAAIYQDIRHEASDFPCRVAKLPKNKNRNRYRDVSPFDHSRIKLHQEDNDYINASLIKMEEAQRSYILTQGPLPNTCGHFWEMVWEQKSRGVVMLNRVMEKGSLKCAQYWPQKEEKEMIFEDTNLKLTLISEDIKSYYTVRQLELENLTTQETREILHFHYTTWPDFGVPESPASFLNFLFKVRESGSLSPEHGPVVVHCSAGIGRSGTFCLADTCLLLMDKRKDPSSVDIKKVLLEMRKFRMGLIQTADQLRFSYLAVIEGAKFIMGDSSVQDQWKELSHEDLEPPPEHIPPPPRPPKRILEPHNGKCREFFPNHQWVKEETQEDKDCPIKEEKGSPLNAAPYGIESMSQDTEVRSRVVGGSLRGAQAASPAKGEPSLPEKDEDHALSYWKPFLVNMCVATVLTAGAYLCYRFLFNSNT

[3] = target: T2, Tyrosine-protein phosphatase non-receptor type 1 (Homo sapiens) (UniProt P18031); test: Ratio of Ki for salicylic acid to compound Ki for PTP1B
T2 sequence (whole entry): T1 sequence (P18031 whole entry)

Homo sapiens = organism: Homo sapiens; test: Selectivity ratio of Ki for human recombinant TC-PTP to Ki for PTP1B
[4] = Selectivity ratio of Ki for PTP to Ki for PTP1B

Sequence of Tyrosine-protein phosphatase YopH (P08538 whole entry): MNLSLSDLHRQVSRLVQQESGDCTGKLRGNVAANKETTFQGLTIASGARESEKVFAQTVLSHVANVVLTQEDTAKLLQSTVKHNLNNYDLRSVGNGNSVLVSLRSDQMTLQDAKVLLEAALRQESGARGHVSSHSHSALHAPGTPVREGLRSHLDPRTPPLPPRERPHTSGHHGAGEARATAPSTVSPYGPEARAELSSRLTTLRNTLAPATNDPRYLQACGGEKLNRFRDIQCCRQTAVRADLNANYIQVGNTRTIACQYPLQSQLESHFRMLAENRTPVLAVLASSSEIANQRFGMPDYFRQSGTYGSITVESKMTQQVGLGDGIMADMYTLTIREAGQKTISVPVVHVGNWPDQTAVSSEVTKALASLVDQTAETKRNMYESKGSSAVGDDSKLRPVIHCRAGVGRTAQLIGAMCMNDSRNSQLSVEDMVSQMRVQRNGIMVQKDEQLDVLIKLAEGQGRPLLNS

Compound | IC50 [1] [µM] | Ki [2] [µM] | also measured
O=C(O)c1cc2cc(O)ccc2cc1O | 60 |  | 
O=C(O)c1cc2cccc(O)c2cc1O | 18 |  | 
O=C(O)c1cc(NCn2c(=S)[nH]c3ccccc32)ccc1O |  | 61 | 
O=C(O)c1cc(NCn2c(S)nc3ccccc32)ccc1O |  |  | Ratio Ki [3]: 320
N[C@@H](Cc1ccc(C(F)(F)P(=O)(O)O)cc1)C(=O)O [PHOSPHONODIFLUOROMETHYL PHENYLALANINE] |  | 0.0024 | Ratio (Homo sapiens): 10; Ratio Ki [4]: 1000
O=C(O)c1ccccc1O [SALICYLIC ACID] |  | 19400 | Ki [1]: 1000 µM
